Assays:
[1] = tested on: C. albicans ATCC MYA-1237(R) (strain C); format: cell-based, Candida albicans; settings: strain C = C. albicans ATCC MYA-1237(R); MIC-0; 48 h; listed as printed beside letter D
[2] = tested on: C. albicans ATCC 10231(R) (strain B); format: cell-based, Candida albicans
[3] = tested on: F. graminearum 053 (strain T); format: cell-based, Fusarium graminearum; settings: strain T = F. graminearum 053; MIC-0; room temperature, 5 days
[4] = tested on: C. glabrata ATCC 2001 (strain H); test: MIC determination (broth microdilution); format: cell-based, Candida glabrata; settings: strain H = C. glabrata ATCC 2001; MIC-0; 48 h at 35° C.
[5] = tested on: C. neoformans ATCC MYA-85 (strain M); test: MIC determination (broth microdilution); format: cell-based, Cryptococcus neoformans; settings: strain M = C. neoformans ATCC MYA-85; MIC-0; 72 h at 35° C.
[6] = tested on: C. neoformans CN3 (strain P); test: MIC determination (broth microdilution); format: cell-based, Cryptococcus neoformans; settings: MIC-0, 72 h at 35° C.
[7] = tested on: C. albicans ATCC MYA-2310(S) (strain D); test: MIC determination (broth microdilution); format: cell-based, Candida albicans; settings: strain D = C. albicans ATCC MYA-2310(S); MIC-0; 48 h; listed as printed beside letter E
[8] = tested on: A. nidulans ATCC 38163 (strain Q); test: MIC determination (broth microdilution); format: cell-based, Aspergillus nidulans; settings: strain Q = A. nidulans ATCC 38163; MIC-0; 72 h at 35° C.
[9] = tested on: fungal strains (Candida spp., Cryptococcus spp., Aspergillus spp., Fusarium spp.); test: MIC determination, summary statements over the strain panel; format: cell-based; settings: for overall assessment as antifungals: panel of twenty fungal strains (Table 1)
[10] = tested on: C. parapsilosis ATCC 22019 (strain J); test: MIC determination (broth microdilution); format: cell-based; settings: strain J = C. parapsilosis ATCC 22019; MIC-0; 48 h; listed as printed beside letter K
[11] = tested on: A. flavus ATCC MYA-3631 (strain S); test: MIC determination (broth microdilution); format: cell-based, Aspergillus flavus; settings: strain S = A. flavus ATCC MYA-3631; MIC-0; 72 h at 35° C.
[12] = tested on: C. albicans ATCC 64124(R) (strain F); format: cell-based, Candida albicans; settings: strain F = C. albicans ATCC 64124(R); MIC-0; 48 h; listed as printed beside letter G
[13] = tested on: C. auris AR Bank # 0384 (strain K); test: MIC determination (broth microdilution); format: cell-based, Candida auris; settings: strain K = C. auris AR Bank # 0384; MIC-0; 48 h (CAS read at 24 h); Table 1; also in Table 2
[14] = tested on: C. albicans ATCC MYA-1003(R) (strain A); format: cell-based, Candida albicans; settings: strain A = C. albicans ATCC MYA-1003(R); MIC-0; 48 h at 35° C.
[15] = tested on: C. albicans ATCC MYA-2876(S) (strain E); test: MIC determination (broth microdilution); format: cell-based, Candida albicans; settings: strain E = C. albicans ATCC MYA-2876(S); MIC-0; 48 h; listed as printed beside letter F
[16] = tested on: C. krusei ATCC 6258 (strain I); test: MIC determination (broth microdilution); format: cell-based; settings: strain I = C. krusei ATCC 6258; MIC-0; 48 h; listed as split over r16 and r17 (r17 printed beside letter J)
[17] = tested on: C. neoformans CN2 (strain O); test: MIC determination (broth microdilution); format: cell-based, Cryptococcus neoformans; settings: MIC-0, 72 h at 35° C.
[18] = tested on: C. neoformans CN1 (strain N); test: MIC determination (broth microdilution); format: cell-based, Cryptococcus neoformans; settings: MIC-0, 72 h at 35° C.
[19] = tested on: C. albicans ATCC 90819(R) (strain G); format: cell-based, Candida albicans; settings: strain G = C. albicans ATCC 90819(R); MIC-0; 48 h; listed as printed without letter, below G
[20] = tested on: A. terreus ATCC MYA-3633 (strain R); format: cell-based, Aspergillus terreus; settings: strain R = A. terreus ATCC MYA-3633; MIC-0; 72 h at 35° C.
[21] = tested on: C. auris AR Bank # 0390 (strain L); test: MIC determination (broth microdilution); format: cell-based, Candida auris; settings: strain L = C. auris AR Bank # 0390; MIC-0; 48 h (CAS read at 24 h); Table 1 row printed without letter, below L; also in Table 2
[22] = Aspergillus spp., Fusarium spp. and most of the non-albicans Candida strains

Structure (SMILES): [Cl-].c1ccc([P+]2(c3ccccc3)c3ccccc3[P+](c3ccccc3)(c3ccccc3)[Au-3]23[P+](c2ccccc2)(c2ccccc2)c2ccccc2[P+]3(c2ccccc2)c2ccccc2)cc1 [Compound 2, bis-[1,2-bis(diphenylphosphino)benzene]gold(1)]
- MIC [1]: 15.6 µg/mL
- MIC (in parentheses) [1]: 13.9 µM
- MIC [2]: 15.6 (13.9) μg/mL
- MIC (in parentheses) [2]: 15.6 (13.9) μM
- MIC [3]: 31.3 µg/mL
- MIC (in parentheses) [3]: 27.8 µM
- MIC [4]: 7.8 µg/mL
- MIC (in parentheses) [4]: 6.9 µM
- MIC [5]: 3.9 µg/mL
- MIC (in parentheses) [5]: 3.5 µM
- MIC [6]: 3.9 µg/mL
- MIC (in parentheses) [6]: 3.5 µM
- MIC [7]: 7.8 µg/mL
- MIC (in parentheses) [7]: 6.9 µM
- MIC [8]: > 31.3 µg/mL
- MIC (in parentheses) [8]: > 27.8 µM
- antifungal activity [9, 22]: inactive
- overall assessment as antifungals [9]: poor antifungals
- MIC [10]: 7.8 µg/mL
- MIC (in parentheses) [10]: 6.9 µM
- MIC [11]: > 31.3 µg/mL
- MIC (in parentheses) [11]: > 27.8 µM
- MIC [12]: 7.8 µg/mL
- MIC (in parentheses) [12]: 6.9 µM
- MIC [13]: > 31.3 µg/mL
- MIC (in parentheses) [13]: > 27.8 µM
- MIC [14]: 15.6 µg/mL
- MIC (in parentheses) [14]: 13.9 µM
- MIC [15]: 7.8 µg/mL
- MIC (in parentheses) [15]: 6.9 µM
- MIC [16]: 15.6 µg/mL
- MIC (in parentheses) [16]: 13.9 µM
- MIC [17]: 3.9 µg/mL
- MIC (in parentheses) [17]: 3.5 µM
- MIC [18]: 3.9 µg/mL
- MIC (in parentheses) [18]: 3.5 µM
- MIC [19]: 7.8 µg/mL
- MIC (in parentheses) [19]: 6.9 µM
- MIC [20]: > 31.3 µg/mL
- MIC (in parentheses) [20]: > 27.8 µM
- MIC [21]: > 31.3 µg/mL
- MIC (in parentheses) [21]: > 27.8 µM

Structure (SMILES): [Cl][Au-][P+](c1ccccc1)(c1ccccc1)c1ccccc1[P+]([Au-][Cl])(c1ccccc1)c1ccccc1 [Compound 1, [1,2-bis(diphenylphosphino)benzene]digold(I)]
- MIC [1]: 0.49 µg/mL
- MIC (in parentheses) [1]: 5.4 µM
- MIC [2]: 15.6 (17.1) μg/mL
- MIC (in parentheses) [2]: 15.6 (17.1) μM
- MIC [3]: > 31.3 µg/mL
- MIC (in parentheses) [3]: > 34.3 µM
- MIC [4]: 7.8 µg/mL
- MIC (in parentheses) [4]: 8.6 µM
- MIC [5]: 0.98 µg/mL
- MIC (in parentheses) [5]: 1.1 µM
- MIC [6]: 15.6 µg/mL
- MIC (in parentheses) [6]: 17.1 µM
- MIC [7]: 7.8 µg/mL
- MIC (in parentheses) [7]: 8.6 µM
- MIC [8]: > 31.3 µg/mL
- MIC (in parentheses) [8]: > 34.3 µM
- antifungal activity [9, 22]: inactive
- overall assessment as antifungals [9]: poor antifungals
- MIC [10]: 15.6 µg/mL
- MIC (in parentheses) [10]: 17.1 µM
- MIC [11]: > 31.3 µg/mL
- MIC (in parentheses) [11]: > 34.3 µM
- MIC [12]: 7.8 µg/mL
- MIC (in parentheses) [12]: 8.6 µM
- MIC [13]: > 31.3 µg/mL
- MIC (in parentheses) [13]: > 34.3 µM
- MIC [14]: 3.9 µg/mL
- MIC (in parentheses) [14]: 4.3 µM
- MIC [15]: 7.8 µg/mL
- MIC (in parentheses) [15]: 8.6 µM
- MIC [16]: 15.6 µg/mL
- MIC (in parentheses) [16]: 17.1 µM
- MIC [17]: 3.9 µg/mL
- MIC (in parentheses) [17]: 4.3 µM
- MIC [18]: 3.9 µg/mL
- MIC (in parentheses) [18]: 4.3 µM
- MIC [19]: 7.8 µg/mL
- MIC (in parentheses) [19]: 8.6 µM
- MIC [20]: > 31.3 µg/mL
- MIC (in parentheses) [20]: > 34.3 µM
- MIC [21]: > 31.3 µg/mL
- MIC (in parentheses) [21]: > 34.3 µM

Structure (SMILES): CC1CCC(C)[P+]1([Au-][Cl])c1ccccc1[P+]1([Au-][Cl])C(C)CCC1C [Compound 3, [1,2-bis[(2S,5S)-2,5-dimethylphospholano]benzene]digold(1)]
- MIC [1]: > 31.3 µg/mL
- MIC (in parentheses) [1]: 40.6 µM
- MIC [2]: >31.3 (40.6) μg/mL
- MIC (in parentheses) [2]: >31.3 (40.6) μM
- MIC [3]: > 31.3 µg/mL
- MIC (in parentheses) [3]: > 40.6 µM
- MIC [4]: > 31.3 µg/mL
- MIC (in parentheses) [4]: > 40.6 µM
- MIC [5]: 1.95 µg/mL
- MIC (in parentheses) [5]: 2.5 µM
- MIC [6]: > 31.3 µg/mL
- MIC (in parentheses) [6]: > 40.6 µM
- MIC [7]: 31.3 µg/mL
- MIC (in parentheses) [7]: 40.6 µM
- MIC [8]: > 31.3 µg/mL
- MIC (in parentheses) [8]: > 40.6 µM
- antifungal activity ([9]; all fungal strains tested, except C. neoformans (strain M)): completely inactive
- overall assessment as antifungals [9]: poor antifungals
- MIC [10]: > 31.3 µg/mL
- MIC (in parentheses) [10]: > 40.6 µM
- MIC [11]: > 31.3 µg/mL
- MIC (in parentheses) [11]: > 40.6 µM
- MIC [12]: 31.3 µg/mL
- MIC (in parentheses) [12]: 40.6 µM
- MIC [13]: > 31.3 µg/mL
- MIC (in parentheses) [13]: > 40.6 µM
- MIC [14]: 31.3 µg/mL
- MIC (in parentheses) [14]: 40.6 µM
- MIC [15]: 31.3 µg/mL
- MIC (in parentheses) [15]: 40.6 µM
- MIC [16]: > 31.3 µg/mL
- MIC (in parentheses) [16]: > 40.6 µM
- MIC [17]: 31.3 µg/mL
- MIC (in parentheses) [17]: 40.6 µM
- MIC [18]: > 31.3 µg/mL
- MIC (in parentheses) [18]: > 40.6 µM
- MIC [19]: 31.3 µg/mL
- MIC (in parentheses) [19]: 40.6 µM
- MIC [20]: > 31.3 µg/mL
- MIC (in parentheses) [20]: > 40.6 µM
- MIC [21]: > 31.3 µg/mL
- MIC (in parentheses) [21]: > 40.6 µM

Structure (SMILES): CC1CCC(C)[P+]1([Au-][Cl])c1ccccc1[P+]1([Au-][Cl])C(C)CCC1C [Compound 5, [1,2-bis[(2R,5R)-2,5-dimethylphospholano]benzene]digold(1)]
- MIC [1]: 15.6 µg/mL
- MIC (in parentheses) [1]: 20.2 µM
- MIC [2]: 31.3 (40.6) μg/mL
- MIC (in parentheses) [2]: 31.3 (40.6) μM
- MIC [3]: > 31.3 µg/mL
- MIC (in parentheses) [3]: > 40.6 µM
- MIC [4]: 15.6 µg/mL
- MIC (in parentheses) [4]: 20.2 µM
- MIC [5]: 0.12 µg/mL
- MIC (in parentheses) [5]: 0.2 µM
- MIC [6]: 7.8 µg/mL
- MIC (in parentheses) [6]: 10.1 µM
- MIC [7]: 7.8 µg/mL
- MIC (in parentheses) [7]: 10.1 µM
- MIC [8]: > 31.3 µg/mL
- MIC (in parentheses) [8]: > 40.6 µM
- antifungal activity [9, 22]: inactive
- overall assessment as antifungals [9]: poor antifungals
- MIC [10]: 15.6 µg/mL
- MIC (in parentheses) [10]: 20.2 µM
- MIC [11]: > 31.3 µg/mL
- MIC (in parentheses) [11]: > 40.6 µM
- MIC [12]: 15.6 µg/mL
- MIC (in parentheses) [12]: 20.2 µM
- MIC [13]: > 31.3 µg/mL
- MIC (in parentheses) [13]: > 40.6 µM
- MIC [14]: 3.9 µg/mL
- MIC (in parentheses) [14]: 5.1 µM
- MIC [15]: 15.6 µg/mL
- MIC (in parentheses) [15]: 20.2 µM
- MIC [16]: 31.3 µg/mL
- MIC (in parentheses) [16]: 40.6 µM
- MIC [17]: 7.8 µg/mL
- MIC (in parentheses) [17]: 10.1 µM
- MIC [18]: 15.6 µg/mL
- MIC (in parentheses) [18]: 20.2 µM
- MIC [19]: 7.8 µg/mL
- MIC (in parentheses) [19]: 10.1 µM
- MIC [20]: > 31.3 µg/mL
- MIC (in parentheses) [20]: > 40.6 µM
- MIC [21]: > 31.3 µg/mL
- MIC (in parentheses) [21]: > 40.6 µM
